# According to patent US20240239801A1, “PYRIMIDO[5,4,D]PYRIMIDINE COMPOUNDS, COMPOSITIONS COMPRISING THEM AND USES THEREOF” (Université de Montréal, priority 2021, published 2024):
# How the values were obtained:
# [1] = tested on: RAS-mutant cancer cell lines pERK; test: Phospho-ERK inhibition in a panel of cancer cell lines (AlphaLISA); type: cell-based, human
# Method: All cancer cell lines (A375, A101D, A2058, RKO, HT29 SK-MEL 30, IPC298, HepG2, HCT-116, Lovo, SW620, SW480, NCI-H358, NCI-H2122, Calu-6, NCIH2087, NCIH1755, NCIH1666 and Mewo) were obtained from ATCC and cultured in RPMI-1640 medium (Gibco) supplemented with 5% heat inactivated fetal bovine serum (FBS, Wisent) at 37° C. under 5% CO2. Cells were maintained in T175 flasks (Greiner). They were passaged by removing the culture medium, washing once in 10 mL of room temperature Phosphate Buffered Saline (PBS; Wisent) and incubating at 37° C. with 2 mL of 0.05% Trypsin (Thermo-Fisher). […]
# After treatment, media was removed, and cells were lysed in 50 μL of 1× AlphaScreen Ultra Lysis Buffer (Perkin Elmer). […] After completion of the reactions, the signals were recorded on an EnVision plate reader (Perkin Elmer) using built in AlphaLISA® settings.
# The effect of each compound dilution on the pERK signal was expressed in % inhibition and calculated as follows. […]
# The ability of each compound to inhibit pERK signal was expressed as an IC50 value obtained by plotting the inhibition values for each data point of a dilution series and fitting the obtained curves using a log(agonist) versus response−variable slope (four parameters) function using GraphPadPrism (V7.0). […]
# [2] = tested on: RAS-mutant HCT-116 cells pERK/pMEK; test: Immunoblot analysis of pERK and pMEK; type: cell-based, human; conditions: FIG. 2, 1 h treatment
# Method: For immunoblotting analysis, 500,000 HCT-116 cells were plated in 1 mL of complete RPMI-1640 growth medium in 24-well flat-bottomed transparent dishes (Costar). Cells were maintained overnight at 37° C. under 5% CO2 before treatment with compounds' dilution series for one hour. Cells were then washed once in PBS and lized in 250 μL of Igepal Lysis Buffer (50 mM Tris-HCl pH 7.5, 150 mM NaCl, 1% Igepal-CA630, 1 mM EDTA, 10% Glycerol) supplemented with Leupeptin, Aprotinin, PMSF, phosphatase inhibitor cocktail (Sigma) and Na3VO4 at 4° C. for 15 minutes with gentle rocking. Cell extracts were then cleared by centrifugation at 20,000 g at 4° C. for 10 minutes. Cleared lysates were then transferred on ice in fresh tubes and then boiled in sample loading buffer (100 mM Tris-HCl pH 6.8, 4% SDS, 0.2% bromophenol blue, 20% glycerol, 200 mM β-mercaptoethanol) for 5 minutes prior to fractionation by SDS-PAGE and transfer to nitrocellulose membranes (PALL). […]
YMIN of pERK IC50 curves ([1]; in 11 of the 13 RAS-mutant cell lines tested) [%],Structure (SMILES),paradoxical induction of the pathway (pERK) ([1]; RAS-mutant cell lines of Table D),paradoxical induction of pERK or pMEK signaling (immunoblot) [2]
< −30,"Cc1ccc2c(Nc3cccc(Cl)c3F)nccc2c1NC(=O)c1csc2c(N)ncnc12 [Belvarafenib, reference compound]",mild to strong induction of the pathway,–
–,Nc1cccc2c1ncn2-c1ncc2ncnc(Nc3c(F)ccc(NS(=O)(=O)c4cccc(Cl)c4Cl)c3F)c2n1 [Example 80],–,does not induce paradoxical induction of pERK or pMEK signaling
